Assay results published in USRE50528E1, “Compounds and compositions for modulating EGFR mutant kinase activities” (Yuhan Corporation, priority 2014, dated 2025).

Columns and labels:
EGFR mutant T790M = molecular target: T1, EGFR mutant T790M (Homo sapiens, UniProt P00533, T790M); assay: Kinase inhibition assay, EGFR mutant T790M; conditions: biochemical potency;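 note: truncated human EGFR mutant enzyme preincubated two hours with compound, then ATP plus ULight-PolyGT peptide for one hour, Europium-labeled antibody LANCE detection, IC50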
T1 construct: truncated human JAK3, EGFR mutants such as del E746-A750; purchased Carna Biosciences

[1] = molecular target: T2, EGFR mutant Del19 (E746-A750) (Homo sapiens, UniProt P00533, DEL746-750); assay: Kinase inhibition assay, EGFR del E746-A750; format: biochemical; conditions: read-out: EGFR mutants Del19 (E746-A750);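 note: truncated human EGFR mutant kinase, two-hour preincubation with compound, then one-hour reaction with ATP and ULight-PolyGT peptide, LANCE Europium-antibody phosphorylation readout, IC50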
T2 construct: truncated human JAK3, EGFR mutants such as del E746-A750; purchased Carna Biosciences

EGFR mutant L858R = molecular target: T3, EGFR mutant L858R (Homo sapiens, UniProt P00533, L858R); assay: Kinase inhibition assay, EGFR L858R; format: biochemical; conditions: read-out: EGFR mutants L858R;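 note: truncated human EGFR L858R kinase with compound preincubation, ULight-PolyGT peptide phosphorylation read by Europium-antibody Lance detection, IC50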
T3 construct: truncated human JAK3, EGFR mutants such as del E746-A750; purchased Carna Biosciences

EGFR mutant L858R/T790M = molecular target: T4, EGFR mutant L858R/T790M (Homo sapiens, UniProt P00533, L858R/T790M); assay: Kinase inhibition assay, EGFR L858R/T790M; format: biochemical; conditions: read-out: EGFR mutants L858R/T790M;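 note: truncated human enzyme preincubated two hours with compound, then one hour with one millimolar ATP and ULight-PolyGT peptide, Europium-labeled antibody detection, IC50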
T4 construct: truncated human JAK3, EGFR mutants such as del E746-A750; purchased Carna Biosciences

EGFR mutant Del19/T790M = molecular target: T5, EGFR mutant Del19/T790M (Homo sapiens, UniProt P00533, DEL746-750/T790M); assay: Kinase inhibition assay, EGFR del E746-A750/T790M; format: biochemical; conditions: read-out: EGFR mutants Del19/T790M
T5 construct: truncated human JAK3, EGFR mutants such as del E746-A750; purchased Carna Biosciences

SYK = molecular target: T6, SYK (Homo sapiens, UniProt P43405); assay: Kinase inhibition assay, SYK; format: biochemical; conditions: biochemical potency;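 note: purified full-length human SYK pre-incubated 30 min with compound, then ULight-TK peptide phosphorylation for 1 h, detected with Europium-labeled antibody in Lance buffer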
T6 construct: Purified human, full-length SYK, KDR; purchased Carna Biosciences

T4 sequence (P00533 669-1210 T790M/L858R limits assumed): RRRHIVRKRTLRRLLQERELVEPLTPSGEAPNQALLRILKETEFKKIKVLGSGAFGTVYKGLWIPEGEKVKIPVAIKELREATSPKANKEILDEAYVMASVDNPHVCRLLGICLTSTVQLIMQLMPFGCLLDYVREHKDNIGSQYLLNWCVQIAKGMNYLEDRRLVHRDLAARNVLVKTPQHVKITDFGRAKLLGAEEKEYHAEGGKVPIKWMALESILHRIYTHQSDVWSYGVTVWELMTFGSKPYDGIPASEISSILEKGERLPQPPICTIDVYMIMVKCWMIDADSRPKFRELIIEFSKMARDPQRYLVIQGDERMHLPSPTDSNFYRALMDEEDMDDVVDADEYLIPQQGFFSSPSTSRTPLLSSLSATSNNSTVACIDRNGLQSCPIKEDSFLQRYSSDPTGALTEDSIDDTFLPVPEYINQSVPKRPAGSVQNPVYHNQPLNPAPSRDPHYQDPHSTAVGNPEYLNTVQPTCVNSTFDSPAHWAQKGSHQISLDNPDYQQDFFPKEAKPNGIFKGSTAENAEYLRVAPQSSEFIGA
T1 sequence (P00533 669-1210 T790M limits assumed): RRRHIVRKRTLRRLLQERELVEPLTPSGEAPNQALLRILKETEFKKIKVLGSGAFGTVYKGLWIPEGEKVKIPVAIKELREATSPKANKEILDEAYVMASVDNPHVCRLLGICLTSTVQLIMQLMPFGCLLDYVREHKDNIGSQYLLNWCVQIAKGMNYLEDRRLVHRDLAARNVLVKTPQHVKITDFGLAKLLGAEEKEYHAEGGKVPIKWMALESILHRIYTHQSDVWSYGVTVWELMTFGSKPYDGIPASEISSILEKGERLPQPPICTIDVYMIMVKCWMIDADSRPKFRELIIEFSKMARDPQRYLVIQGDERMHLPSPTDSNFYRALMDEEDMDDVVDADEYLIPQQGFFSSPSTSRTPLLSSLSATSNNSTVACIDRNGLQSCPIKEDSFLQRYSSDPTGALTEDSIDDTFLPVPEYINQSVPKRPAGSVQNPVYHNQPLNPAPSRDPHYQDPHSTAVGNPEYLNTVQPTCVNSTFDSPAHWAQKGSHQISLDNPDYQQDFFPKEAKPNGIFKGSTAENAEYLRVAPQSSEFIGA
T3 sequence (P00533 669-1210 L858R limits assumed): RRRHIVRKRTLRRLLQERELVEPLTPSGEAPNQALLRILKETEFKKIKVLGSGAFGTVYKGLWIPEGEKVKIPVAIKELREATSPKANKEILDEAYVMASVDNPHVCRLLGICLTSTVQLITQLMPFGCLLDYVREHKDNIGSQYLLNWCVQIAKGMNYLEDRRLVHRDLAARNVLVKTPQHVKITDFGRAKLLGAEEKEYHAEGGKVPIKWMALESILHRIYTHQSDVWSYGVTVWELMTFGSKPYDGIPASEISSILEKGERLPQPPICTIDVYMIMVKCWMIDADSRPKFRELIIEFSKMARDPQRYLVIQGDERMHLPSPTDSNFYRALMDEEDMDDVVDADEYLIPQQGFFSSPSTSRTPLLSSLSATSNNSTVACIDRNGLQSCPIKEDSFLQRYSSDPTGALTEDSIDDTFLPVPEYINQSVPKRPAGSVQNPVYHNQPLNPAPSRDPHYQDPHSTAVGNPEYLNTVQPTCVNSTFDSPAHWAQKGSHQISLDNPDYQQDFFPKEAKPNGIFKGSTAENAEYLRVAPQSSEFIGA
T2 sequence (P00533 with tags, fused parts or gaps DEL746-750 limits assumed): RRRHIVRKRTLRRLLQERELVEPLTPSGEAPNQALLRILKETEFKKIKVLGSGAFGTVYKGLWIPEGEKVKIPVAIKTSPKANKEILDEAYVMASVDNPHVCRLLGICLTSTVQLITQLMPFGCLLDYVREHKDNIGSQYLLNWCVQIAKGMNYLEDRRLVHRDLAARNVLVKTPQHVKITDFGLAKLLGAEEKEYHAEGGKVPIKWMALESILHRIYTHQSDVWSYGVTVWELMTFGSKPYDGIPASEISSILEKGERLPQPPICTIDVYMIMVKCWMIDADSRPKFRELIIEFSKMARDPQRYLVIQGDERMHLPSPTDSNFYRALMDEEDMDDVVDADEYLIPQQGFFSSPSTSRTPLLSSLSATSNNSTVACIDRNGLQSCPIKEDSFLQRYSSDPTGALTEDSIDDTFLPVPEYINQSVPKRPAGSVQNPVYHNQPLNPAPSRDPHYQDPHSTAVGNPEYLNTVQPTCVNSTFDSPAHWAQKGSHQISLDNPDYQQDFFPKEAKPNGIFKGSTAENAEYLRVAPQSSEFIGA
T5 sequence (P00533 with tags, fused parts or gaps DEL746-750/T790M limits assumed): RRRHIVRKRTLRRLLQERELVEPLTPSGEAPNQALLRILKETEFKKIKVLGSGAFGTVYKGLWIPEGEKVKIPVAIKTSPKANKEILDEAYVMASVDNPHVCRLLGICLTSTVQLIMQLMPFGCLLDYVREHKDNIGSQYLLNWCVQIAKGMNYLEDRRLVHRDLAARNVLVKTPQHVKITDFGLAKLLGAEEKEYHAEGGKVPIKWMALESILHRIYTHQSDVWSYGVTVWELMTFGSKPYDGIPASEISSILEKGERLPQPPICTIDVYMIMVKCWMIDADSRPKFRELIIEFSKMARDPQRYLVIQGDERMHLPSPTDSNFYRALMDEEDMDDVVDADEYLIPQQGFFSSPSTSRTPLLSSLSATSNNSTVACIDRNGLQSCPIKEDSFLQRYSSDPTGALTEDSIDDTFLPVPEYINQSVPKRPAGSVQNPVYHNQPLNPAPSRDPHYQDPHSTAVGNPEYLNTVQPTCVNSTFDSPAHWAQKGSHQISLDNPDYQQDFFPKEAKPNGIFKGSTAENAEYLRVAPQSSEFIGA

IC50 (EGFR mutant T790M) [nM] | IC50 [1] [nM] | IC50 (EGFR mutant L858R) [nM] | IC50 (EGFR mutant L858R/T790M) [nM] | IC50 (EGFR mutant Del19/T790M) [nM] | IC50 (SYK) [nM] | SMILES
20 to 200 | 20 to 200 | 20 to 200 | < 20 | < 20 | > 1000 | C=CC(=O)Nc1cc(Nc2nccc(-n3cc(CN(C)C)c(-c4ccc(F)cc4)n3)n2)c(OC)cc1N1CCOCC1 [Compound 6, N-(5-(4-(4-((dimethylamino)methyl)-3-(4-fluorophenyl)-1H-pyrazol-1-yl)pyrimidin-2-ylamino)-4-methoxy-2-morpholinophenyl)acrylamide]
< 20 | < 20 | < 20 | < 20 | < 20 | > 1000 | C=CC(=O)Nc1cc(Nc2ncc(C)c(-n3cc(CN(C)C)c(C(C)(C)C)n3)n2)c(OC)cc1N1CCOCC1 [Compound 7, N-(5-(4-(3-tert-butyl-4-((dimethylamino)methyl)-1H-pyrazol-1-yl)-5-methylpyrimidin-2-ylamino)-4-methoxy-2-morpholinophenyl)acrylamide]
< 20 | < 20 | < 20 | < 20 | < 20 | 201 to 1000 | C=CC(=O)Nc1cc(Nc2nccc(-n3cc(CN4CC(O)C4)c(C)n3)n2)c(OC)cc1N1CCOCC1 [Compound 15, N-(5-(4-(4-((3-hydroxyazetidin-1-yl)methyl)-3-methyl-1H-pyrazol-1-yl)pyrimidin-2-ylamino)-4-methoxy-2-morpholinophenyl)acrylamide]
< 20 | < 20 | 20 to 200 | < 20 | < 20 | 201 to 1000 | C=CC(=O)Nc1cc(Nc2ncc(C)c(-n3cc(CN4C[C@H](O)[C@H](OC)C4)cn3)n2)c(OC)cc1N1CCOCC1 [Compound 21, N-(5-(4-(4-(((3S,4R)-3-hydroxy-4-methoxypyrrolidin-1-yl)methyl)-1H-pyrazol-1-yl)-5-methylpyrimidin-2-ylamino)-4-methoxy-2-morpholinophenyl)acrylamide]
< 20 | < 20 | 20 to 200 | < 20 | < 20 | 20 to 200 | C=CC(=O)Nc1cc(Nc2ncc(C)c(-n3cc(CN(C)C)cn3)n2)c(OC)cc1N1CCOCC1 [Compound 22, N-(5-(4-(4-((dimethylamino)methyl)-1H-pyrazol-1-yl)-5-methylpyrimidin-2-ylamino)-4-methoxy-2-morpholinophenyl)acrylamide]
201 to 1000 | 201 to 1000 |  | 201 to 1000 | 201 to 1000 | > 1000 | C=CC(=O)Nc1cc(Nc2ncc(C)c(-n3cc(CN(C)C4CN(C)C4)cn3)n2)c(OC)cc1N1CCOCC1 [Compound 23, N-(4-methoxy-5-(5-methyl-4-(4-((methyl(1-methylazetidin-3-yl)amino)methyl)-1H-pyrazol-1-yl)pyrimidin-2-ylamino)-2-morpholinophenyl)acrylamide]
< 20 | < 20 | < 20 | < 20 | < 20 | 201 to 1000 | C=CC(=O)Nc1cc(Nc2ncc(C)c(-n3cc(CN4CC[C@H](O)C4)c(C)n3)n2)c(OC)cc1N1CCOCC1 [Compound 28, (S)—N-(5-(4-(4-((3-hydroxypyrrolidin-1-yl)methyl)-3-methyl-1H-pyrazol-1-yl)-5-methylpyrimidin-2-ylamino)-4-methoxy-2-morpholinophenyl)acrylamide]
< 20 | < 20 | < 20 | < 20 | < 20 | 20 to 200 | C=CC(=O)Nc1cc(Nc2ncc(C)c(-n3cc(CN4CC(O)C4)c(C)n3)n2)c(OC)cc1N1CCCCC1 [Compound 30, N-(5-(4-(4-((3-hydroxyazetidin-1-yl)methyl)-3-methyl-1H-pyrazol-1-yl)-5-methylpyrimidin-2-ylamino)-4-methoxy-2-(piperidin-1-yl)phenyl)acrylamide]
 | 201 to 1000 | 201 to 1000 | 201 to 1000 | 20 to 200 | > 1000 | C=CC(=O)Nc1cc(Nc2nccc(-n3cc(CN4CC[C@H](N(C)C)C4)cn3)n2)c(OC)cc1N1CCOCC1 [Compound 35, (S)—N-(5-(4-(4-((3-(dimethylamino)pyrrolidin-1-yl)methyl)-1H-pyrazol-1-yl)pyrimidin-2-ylamino)-4-methoxy-2-morpholinophenyl)acrylamide]
 | 201 to 1000 | 201 to 1000 | 201 to 1000 | 20 to 200 | > 1000 | C=CC(=O)Nc1cc(Nc2nccc(-n3cc(CN4CC[C@@H](N(C)C)C4)cn3)n2)c(OC)cc1N1CCOCC1 [Compound 39, (R)—N-(5-(4-(4-((3-(dimethylamino)pyrrolidin-1-yl)methyl)-1H-pyrazol-1-yl)pyrimidin-2-ylamino)-4-methoxy-2-morpholinophenyl)acrylamide]
 | 20 to 200 | 201 to 1000 | 20 to 200 | 20 to 200 | > 1000 | C=CC(=O)Nc1cc(Nc2nccc(-n3cc(CN4CCC4)c(C)n3)n2)c(OC)cc1-c1ccccc1OC [Compound 68, N-(4-(4-(4-(azetidin-1-ylmethyl)-3-methyl-1H-pyrazol-1-yl)pyrimidin-2-ylamino)-2′,5-dimethoxybiphenyl-2-yl)acrylamide]
 | < 20 | 20 to 200 | 20 to 200 | < 20 | > 1000 | C=CC(=O)Nc1cc(Nc2nccc(-n3cc(CN4CCC4)c(C)n3)n2)c(OC)cc1N1CCC(F)(F)CC1 [Compound 69, N-(5-(4-(4-(azetidin-1-ylmethyl)-3-methyl-1H-pyrazol-1-yl)pyrimidin-2-ylamino)-2-(4,4-difluoropiperidin-1-yl)-4-methoxyphenyl)acrylamide]
 | < 20 | 20 to 200 | < 20 | < 20 | > 1000 | C=CC(=O)Nc1cc(Nc2nccc(-n3cc(CN4CCCC4)c(-c4ccccc4)n3)n2)c(OC)cc1N1CCOCC1 [Compound 90, N-(4-methoxy-2-morpholino-5-(4-(3-phenyl-4-(pyrrolidin-1-ylmethyl)-1H-pyrazol-1-yl)pyrimidin-2-ylamino)phenyl)acrylamide]
20 to 200 | < 20 | < 20 | < 20 | < 20 |  | C=CC(=O)Nc1cc(Nc2nccc(-n3cc(CN(C)C)c(C(C)(C)C)n3)n2)c(OC)cc1N(CC)CCOC [Compound 126, N-(5-(4-(3-tert-butyl-4-((dimethylamino)methyl)-1H-pyrazol-1-yl)pyrimidin-2-ylamino)-2-(ethyl(2-methoxyethyl)amino)-4-methoxyphenyl)acrylamide]
< 20 | < 20 | < 20 | < 20 | < 20 |  | C=CC(=O)Nc1cc(Nc2nccc(-n3cc(CN(C)C)c(-c4cccnc4)n3)n2)c(OC)cc1N1CCOCC1 [Compound 128, N-(5-(4-(4-((dimethylamino)methyl)-3-(pyridin-3-yl)-1H-pyrazol-1-yl)pyrimidin-2-ylamino)-4-methoxy-2-morpholinophenyl)acrylamide]
< 20 | < 20 | < 20 | < 20 | < 20 |  | C=CC(=O)Nc1cc(Nc2ncc(C)c(-n3cc(CN(C)C)c(C4CC4)n3)n2)c(OC)cc1N(C)C1COC1 [Compound 132, N-(5-(4-(3-cyclopropyl-4-((dimethylamino)methyl)-1H-pyrazol-1-yl)-5-methylpyrimidin-2-ylamino)-4-methoxy-2-(methyl(oxetan-3-yl)amino)phenyl)acrylamide]
< 20 | < 20 | < 20 | < 20 | < 20 |  | C=CC(=O)Nc1cc(Nc2nccc(-n3cc(CN(C)C)c(-c4ccncc4)n3)n2)c(OC)cc1N1CCOCC1 [Compound 136, N-(5-(4-(4-((dimethylamino)methyl)-3-(pyridin-4-yl)-1H-pyrazol-1-yl)pyrimidin-2-ylamino)-4-methoxy-2-morpholinophenyl)acrylamide]
< 20 | < 20 | < 20 | < 20 | < 20 |  | C=CC(=O)Nc1cc(Nc2nccc(-n3cc(CN(C)CC)c(C4CC4)n3)n2)c(OC)cc1N1CCN(C(C)=O)CC1 [Compound 137, N-(2-(4-acetylpiperazin-1-yl)-5-(4-(3-cyclopropyl-4-((ethyl(methyl)amino)methyl)-1H-pyrazol-1-yl)pyrimidin-2-ylamino)-4-methoxyphenyl)acrylamide]
 | < 20 | < 20 | < 20 | < 20 | 201 to 1000 | C=CC(=O)Nc1cc(Nc2ncc(F)c(-n3cc(C)c(CN4CCC4)c3)n2)c(OC)cc1N(C)C [Compound 142, N-(5-(4-(3-(azetidin-1-ylmethyl)-4-methyl-1H-pyrrol-1-yl)-5-fluoropyrimidin-2-ylamino)-2-(dimethylamino)-4-methoxyphenyl)acrylamide]
20 to 200 | < 20 | < 20 | < 20 | < 20 |  | C=CC(=O)Nc1cc(Nc2nccc(-n3cc(CN(C)CC)c(C)n3)n2)c(OC)cc1N1CCOCC1 [Compound 145, N-(5-(4-(4-((ethyl(methyl)amino)methyl)-3-methyl-1H-pyrazol-1-yl)pyrimidin-2-ylamino)-4-methoxy-2-morpholinophenyl)acrylamide]
